Source: patent publication US6056965A, “2-mercapto-imidazole derivatives substituted in position 4 (or 5) as antioxidizing agents, method of preparation and applications in the pharmaceutical, cosmetic or food industries” (Oxis Isle of Man, Limited, priority 1993, dated 2000)

Legend:
[1] = test system: erythrocytic glutathione peroxidase; experiment: Prevention of the inactivation of glutathione peroxidase by hypochlorous acid; type: biochemical, bovine; conditions: 25 μM test molecule + 10 μM hypochlorous acid, 2 minutes at 37° C.; 100% = no hypochlorous acid and no test molecule
Experimental: In a 50 mM potassium phosphate buffer of pH 7.0 containing 0.1 mM DTPA, a quantity of erythrocytic glutathione peroxidase of bovine origin is incubated for 2 minutes at 37° C., at a final concentration of 1.5 U/ml, in the presence of 10 μM hypochlorous acid and in the presence or absence of a molecule described in the present invention (at 25 μM).
After incubation for 2 minutes, 100 μl of this reaction medium are then added to 1.5 ml of 50 mM Tris buffer of pH 7.6 (at 37° C.) containing 0.1 mM DTPA, 0.165 mM β-NADPH, 2.2 mM reduced glutathione and 1.1 U/ml of glutathione disulfide reductase.
Then, after the addition of 50 μl of 6.6 mM t-butyl hydroperoxide, the glutathione peroxidase activity is determined at 37° C. by measuring the decrease in absorbance at 340 nm for 2 minutes.
They are expressed as a percentage of the glutathione peroxidase activity determined under the same experimental conditions in the absence of hypochlorous acid and the test molecule.

[2] = test system: glucose-6-phosphate dehydrogenase; experiment: Prevention of the inactivation of glucose-6-phosphate dehydrogenase by the system Cu(II)/ascorbate/O2; type: biochemical, Leuconostoc mesenteroides; conditions: 25 μM test molecule + 4.5 μM Cu(2+) + 360 μM ascorbate, 5 minutes at 37° C.; 100% = no system and no test molecule
Experimental: In a 50 mM potassium phosphate buffer of pH 7.0, a quantity of glucose-6-phosphate dehydrogenase (purified from Leuconostoc mesenteroides) is incubated for 5 minutes at 37° C., at a final concentration of 1.2 U/ml, in the presence of 4.5 μM copper sulfate and 360 μM ascorbate and in the presence or absence of a molecule described in the present invention (at 25 μM). After incubation for 5 minutes, 20 μl of this reaction medium are then added to 980 μl of 50 mM Tris buffer of pH 7.5 (at 37° C.) containing 0.380 mM β-NADP^+, 3.3 mM glucose-6-phosphate and 6.3 mM magnesium chloride. The glucose-6-phosphate dehydrogenase activity is then determined at 37° C. by measuring, the increase in absorbance at 340 nm for 7 minutes. They are expressed as a percentage of the glucose-6-phosphate dehydrogenase activity determined under the same experimental conditions in the absence of the system Cu(II)/ascorbate/O2 and the test molecule.

double-stranded DNA = experiment: Prevention of the degradation of DNA by the system Fe(II)-citrate/H2O2/ascorbate; type: biochemical, phage lambda; conditions: 25 μM test molecule (table) + 20 μM Fe(2+)-citrate, 200 μM ascorbate, 200 μM H2O2, 1 hour at 37° C.
Experimental: After this incubation for one hour, 220 U/ml of catalase are then added to the reaction medium and the integrity of the DNA is measured by spectrofluorimetry after the addition of 10 μl of a 5 mM solution of ethidium bromide to the reaction medium (excitation wavelength: 510 nm; emission wavelength: 590 nm).
The effect of the test molecule is measured by determining the percentage of intact DNA, the value of 100% being determined under the same experimental conditions in the absence of the system Fe(II)-citrate/H2 O2 /ascorbate and the test molecule.

[3] = test system: isolated and perfused rat heart; experiment: Inhibition of cardiac necrosis induced by ischemia-reperfusion, perfused isolated heart (Example 16); conditions: 2 μM in perfusion medium 12 minutes prior to ischemia and during reperfusion
Experimental: Male Sprague-Dawley rats weighing between 250 and 350 grams are injected intraperitoneally with a solution of sodium heparinate (40 units/100 g). The rats are anesthetized with ether 30 minutes later. The heart is then quickly removed and perfused by Langendorff's method (see 0. LANGENDORFF: Pflugers Arch. Physiol. Mensch. Tiere; (1895); 61; page 291) with electrical stimulation at a frequency of 300/min. The perfusion solution, equilibrated with 95% of oxygen and 5% of carbon dioxide, consists of a modified Krebs-Henseleit buffer (pH 7.4) of the following composition: NaCl118 mM, KCl 4.7 mM, MgSO4 1.2 mM, CaCl2 1 mM, KH2 PO4 1.2 mM, NaHCO3 25 mM and glucose 11 mM. The whole set-up is thermostatically controlled at 37° C.
The functional state of the heart is monitored by measurement of the following hemodynamic parameters: heart rate, systolic and telediastolic ventricular pressures (the difference between these expressing the developed pressure) and minimal and maximal slopes of the pressure variations as a function of time. […]
In addition, the alteration of the myocardial tissue is evaluated by determining the concentration, in the perfusate, of two cytosolic enzymes released into the perfusion medium, namely creatine phosphokinase (CPK) and lactate dehydrogenase (LDH). […]

isolated rat heart [4] = experiment: Recovery of the developed pressure of a heart subjected to ischemia-reperfusion (Example 18); conditions: 10 μM BXT 52051 or 2 μM BXT 52052; 12 minutes prior to ischemia and during reperfusion; FIG. 4
Experimental: In the same experimental model as that described in Example 17, the study of BXT 52051 and BXT 52052 is carried out by perfusing the heart with the perfusion medium containing 10 μM BXT 52051 or 2 μM BXT 52052 for 12 minutes prior to the period of ischemia, as well as during the reperfusion. The degradation of the cardiac function is evaluated from the measurement of hemodynamic parameters (systolic and telediastolic ventricular pressures) by determining over time the percentage recovery of the developed pressure (difference between systolic and telediastolic pressure) during the reperfusion, compared to that recorded just before the period of ischemia (stabilized developed pressure).

[5] = test system: isolated and perfused rat heart; experiment: Inhibition of cardiac necrosis induced by ischemia-reperfusion, modified perfusion solution (Example 17); conditions: 20 μM BXT 52053, 600 μM albumin (BSA) or 100 μM L-ergothioneine; 12 minutes before ischemia and first 30 minutes of reperfusion; FIG. 3
Experimental: In the same experimental model as that described in Example 16, the composition of the perfusion solution was modified such that it contains 2.5 mM CaCl2 and 2.4 mM MgCl2) (all else being moreover equal). The effect of BXT 52053 is then compared to that of albumin and L-ergothioneine.
This study is carried out by perfusing the heart with the perfusion solution containing 20 μM BXT 52053, or 600 μM albumin (BSA), or 100 μM L-ergothioneine, during the 12 minutes preceding the period of ischemia, then during the first 30 minutes of post-ischemic reperfusion.
The degradation of the myocardial tissue due to the ischemia and/or reperfusion is evaluated by determining the total quantity of creatine phosphokinase (CPK) released into the perfusate during the period of reperfusion. The results are expressed in milliunits of enzyme activity per milligram of heart and per minute.

isolated rat heart [6] = conditions: 100 μmolar; after 15 min of ischemia; cited from earlier work
oxyhemoglobin = conditions: micromolar concentrations; sodium nitrite; in vitro; cited from earlier work
[7] = test system: ferryl forms of the hemoproteins; conditions: physiological pH; produced in the presence of H2O2; cited from earlier work
[8] = physiological conditions (concentrations and pH); cited from earlier work
[9] = physiological conditions (concentrations and pH); cited from earlier work; remark: listed apart in the source
[10] = pulsed radiolysis or Fenton reaction; cited from earlier work
[11] = quenching excited states of photosensitizers such as rose bengal; cited from earlier work
[12] = in the presence of metal salts (Fe^++); cited from earlier work

Row | Molecule | % glutathione peroxidase activity [1] | % glucose-6-phosphate dehydrogenase activity [2] | % intact DNA (double-stranded DNA) | further results
1 | O=C(O)CCc1c[nH]c(=S)[nH]1 [BXT 52020, 3-(2'-mercaptoimidazol-4'-yl)propanoic acid] | 94.8% | 92.3% | 76.2% | –
2 | CCOC(=O)CCc1c[nH]c(=S)[nH]1 [BXT 52021, ethyl 3-(2'-mercaptoimidazol-4'-yl)propanoate] | 94.7% | 93.7% | 78.0% | systolic pressure of heart subjected to ischemia-reperfusion [3]: maintained
3 | C[N+](C)(C)CC(CC(=O)[O-])OC(=O)CCc1c[nH]c(S)n1 (stereo not drawn) [BXT 52052, carnitine 3-(2'-mercaptoimidazol-4'-yl)propanoate] | – | – | – | recovery of the ventricular developed pressure during reperfusion (isolated rat heart [4]): recovered much more rapidly and reaches a higher value
4 | C[N+](C)(C)[C@@H](Cc1c[nH]c(=S)[nH]1)C(=O)[O-] [L-ergothioneine, L-(+)-Ergothioneine] | – | – | – | total quantity of CPK released into the perfusate during 30 minutes of reperfusion [5]: no significant effect; extent of cell necrosis (lactate dehydrogenase activity of the effluent) (isolated rat heart [6]): limits the extent of cell necrosis; inhibition of methemoglobin formation (oxyhemoglobin): effectively inhibit the formation of methemoglobin; reduction of ferryl forms of hemoproteins [7]: reduces the ferryl forms of the hemoproteins; reaction with hydrogen peroxide [8]: reacts neither; reaction with superoxide anion [9]: reacts neither; reaction with OH radicals [10]: kinetics close to the maximum rate of diffusion; photoproduction of singlet oxygen [11]: inhibits the photoproduction of singlet oxygen; stimulation of peroxidation of polyunsaturated fatty acids [12]: does not stimulate the peroxidation of polyunsaturated fatty acids
5 | albumin: albumin (BSA), comparison agent in the perfusion solution | – | – | – | total quantity of CPK released into the perfusate during 30 minutes of reperfusion [5]: no significant effect

Now from value to molecule, other results behind:

Row | % glutathione peroxidase activity [1] | % glucose-6-phosphate dehydrogenase activity [2] | Molecule | % intact DNA (double-stranded DNA) | further results
6 | 94.4% | 94.4% | NCCc1c[nH]c(=S)[nH]1 [BXT 52022, 2-(2'-mercaptoimidazol-4'-yl)ethylamine] | 80.2% | –
7 | 93.2% | 92.3% | NC(=O)CCc1c[nH]c(=S)[nH]1 [BXT 52029, 3-(2'-mercaptoimidazol-4'-yl)propanamide] | 78.0% | –
8 | 99.1% | 104.6% | CN(C)[C@@H](Cc1c[nH]c(=S)[nH]1)C(=O)O [BXT 52040, 2'-mercapto-Nα,Nα-dimethyl-L-(+)-histidine] | 75.3% | –
